The target in one test is T1, HDAC6 human recombinant (Homo sapiens, UniProt Q9UBN7).
T1 construct: purchased Calbiochem 382180
T1 sequence (Q9UBN7 1-1215): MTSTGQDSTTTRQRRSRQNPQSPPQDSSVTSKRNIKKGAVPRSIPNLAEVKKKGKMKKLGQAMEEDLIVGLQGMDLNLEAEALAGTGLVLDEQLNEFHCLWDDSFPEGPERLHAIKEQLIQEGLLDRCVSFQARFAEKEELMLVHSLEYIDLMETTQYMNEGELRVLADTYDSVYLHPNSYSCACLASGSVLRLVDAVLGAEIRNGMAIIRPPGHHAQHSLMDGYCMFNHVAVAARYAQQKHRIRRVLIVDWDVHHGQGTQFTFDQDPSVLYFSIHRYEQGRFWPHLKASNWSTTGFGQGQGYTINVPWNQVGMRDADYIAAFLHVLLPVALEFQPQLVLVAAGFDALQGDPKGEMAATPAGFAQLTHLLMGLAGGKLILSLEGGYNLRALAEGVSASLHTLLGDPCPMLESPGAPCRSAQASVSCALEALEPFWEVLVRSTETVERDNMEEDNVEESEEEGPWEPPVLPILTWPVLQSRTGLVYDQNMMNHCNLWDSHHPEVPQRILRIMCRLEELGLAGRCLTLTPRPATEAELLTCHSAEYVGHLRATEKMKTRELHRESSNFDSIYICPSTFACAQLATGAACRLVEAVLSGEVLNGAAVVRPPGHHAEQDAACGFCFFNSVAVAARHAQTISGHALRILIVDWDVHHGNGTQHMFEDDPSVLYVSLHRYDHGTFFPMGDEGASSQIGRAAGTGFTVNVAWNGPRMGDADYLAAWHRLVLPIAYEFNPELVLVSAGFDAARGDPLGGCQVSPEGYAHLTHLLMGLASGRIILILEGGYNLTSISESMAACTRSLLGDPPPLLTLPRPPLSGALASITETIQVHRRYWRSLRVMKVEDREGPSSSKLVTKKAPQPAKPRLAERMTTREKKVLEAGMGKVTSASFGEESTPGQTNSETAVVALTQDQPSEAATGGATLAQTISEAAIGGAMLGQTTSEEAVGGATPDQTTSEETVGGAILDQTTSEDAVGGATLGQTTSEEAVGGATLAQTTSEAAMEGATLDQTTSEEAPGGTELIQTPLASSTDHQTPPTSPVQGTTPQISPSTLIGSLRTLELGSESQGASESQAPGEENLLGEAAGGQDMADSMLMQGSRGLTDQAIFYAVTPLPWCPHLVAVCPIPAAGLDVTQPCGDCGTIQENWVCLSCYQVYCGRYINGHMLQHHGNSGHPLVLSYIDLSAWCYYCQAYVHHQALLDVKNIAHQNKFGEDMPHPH
The experiment in a line: Inhibition of HDAC6 activity (fluorimetric assay). The conditions noted are these: test concentrations 0.1, 1, 10, 100 and 1000 nM; 37° C., 60 minutes. Format: biochemical. An outline of the steps: (§1)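 HDAC1 tested with the kit assay mixture at 100, 1000 and 10000 nM compound; recombinant human HDAC6 at 0.1, 1, 10, 100 and 1000 nM. Reaction ran 60 min at 37° C, then developer was added for 30 min at 37° C and fluorescence quantified.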

The target in another test is T2, HDAC1 (Homo sapiens, UniProt Q13547).
T2 construct: purchased Enzolifesciences BML-AK511
T2 sequence (Q13547 whole entry): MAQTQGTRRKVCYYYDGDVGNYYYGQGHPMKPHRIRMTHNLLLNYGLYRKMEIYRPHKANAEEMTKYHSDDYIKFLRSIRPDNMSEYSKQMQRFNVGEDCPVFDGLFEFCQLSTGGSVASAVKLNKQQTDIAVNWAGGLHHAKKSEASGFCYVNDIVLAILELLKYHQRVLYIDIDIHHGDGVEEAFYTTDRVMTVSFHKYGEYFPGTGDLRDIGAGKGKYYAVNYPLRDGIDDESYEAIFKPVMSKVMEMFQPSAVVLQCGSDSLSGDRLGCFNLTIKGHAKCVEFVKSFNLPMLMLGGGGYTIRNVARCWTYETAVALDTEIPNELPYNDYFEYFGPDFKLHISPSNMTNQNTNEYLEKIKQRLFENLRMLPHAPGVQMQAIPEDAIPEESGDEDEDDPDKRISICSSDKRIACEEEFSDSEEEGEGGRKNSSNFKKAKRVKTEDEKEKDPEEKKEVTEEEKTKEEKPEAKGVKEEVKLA
Put plainly: Inhibition of HDAC1 activity (HDAC1 fluorimetric drug discovery assay kit). Format: biochemical. The conditions noted are these: test concentrations 100, 1000 and 10000 nM; 37° C., 60 minutes. The essentials:
as §1

This is an account of results in US9650379B2 (CHONG KUN DANG PHARMACEUTICAL CORP., priority 2013, dated 2017).

The structures appear in SMILES notation.

The IC50 is the concentration at which inhibition is half-maximal. Consider `O=C(NO)c1ccc(Cn2ccc3c(C4CCN(Cc5cccc(CN6CCOCC6)c5)CC4)ccnc32)cc1` [Compound 985, N-hydroxy-4-((4-(1-(3-(morpholinomethyl)benzyl)piperidin-4-yl)-1H-pyrrolo[2,3-b]pyridin-1-yl)methyl)benzamide], for which the IC50 worked out at 2.3 nM on HDAC6 human recombinant and 510 nM at HDAC1.
On to `O=C(NO)c1ccc(Cn2ccc3cc(C4CCOCC4)cnc32)cc1` [Compound 635, N-hydroxy-4-((5-(tetrahydro-2H-pyran-4-yl)-1H-pyrrolo[2,3-b]pyridin-1-yl)methyl)benzamide], for which the figures for the IC50 at HDAC6 human recombinant and against HDAC1 were 11 nM and 1170 nM, respectively.
Consider `COc1cccc(CN2CCC(c3cnc4c(ccn4Cc4ccc(C(=O)NO)cc4)c3)CC2)c1` [Compound 842, N-hydroxy-4-((5-(1-(3-methoxybenzyl)piperidin-4-yl)-1H-pyrrolo[2,3-b]pyridin-1-yl)methyl)benzamide], for which the IC50 at HDAC6 human recombinant was determined as 14 nM; at HDAC1, 1790 nM.
Take `O=C(NO)c1ccc(Cn2ccc3cc(C4=CCOCC4)cnc32)cc1` [Compound 629, 4-((5-(3,6-dihydro-2H-pyran-4-yl)-1H-pyrrolo[2,3-b]pyridin-1-yl)methyl)-N-hydroxybenzamide]: the IC50 on HDAC6 human recombinant came out at 4 nM; against HDAC1, 1050 nM.
As to `O=C(NO)c1ccc(Cn2ccc3cc(C4CCN(C(=O)c5cccc(CN6CCOCC6)c5)CC4)cnc32)cc1` [Compound 895, N-hydroxy-4-((5-(1-(3-(morpholinomethyl)benzoyl)piperidin-4-yl)-1H-pyrrolo[2,3-b]pyridin-1-yl)methyl)benzamide], the results for the IC50 on HDAC6 human recombinant and against HDAC1 were 7.6 nM and 1060 nM, respectively.
Regarding `COc1ccc(CN2CCN(c3ccnc4c3ccn4Cc3ccc(C(=O)NO)cc3)CC2)cc1` [Compound 705, N-hydroxy-4-((4-(4-(4-methoxybenzyl)piperazin-1-yl)-1H-pyrrolo[2,3-b]pyridin-1-yl)methyl)-benzamide], the IC50 came to 11 nM on HDAC6 human recombinant and 1120 nM against HDAC1.
The like results for `CC(C)CN1CCN(c2cnc3c(ccn3Cc3ccc(C(=O)NO)cc3)c2)CC1` [Compound 853, N-hydroxy-4-((5-(4-isobutylpiperazin-1-yl)-1H-pyrrolo[2,3-b]pyridin-1-yl)methyl)benzamide] were, in that order, 24 nM and 3510 nM.
Take `O=C(NO)c1ccc(Cn2ccc3cc(C4CCN(Cc5cccnc5)CC4)cnc32)cc1` [Compound 840, N-hydroxy-4-((5-(1-(pyridin-3-ylmethyl)piperidin-4-yl)-1H-pyrrolo[2,3-b]pyridin-1-yl)methyl)benzamide]: the IC50 was 4.1 nM at HDAC6 human recombinant and 610 nM against HDAC1.
For `O=C(NO)c1ccc(Cn2ccc3cc(C4CCN(Cc5ccc(C(F)(F)F)cc5)CC4)cnc32)cc1` [Compound 872, N-hydroxy-4-((5-(1-(4-(trifluoromethyl)benzyl)piperidin-4-yl)-1H-pyrrolo[2,3-b]pyridin-1-yl)methyl)benzamide], in that order: 165 nM and 6340 nM.
For the compound `O=C(NO)c1ccc(Cn2ccc3cc(C4CCN(Cc5ccncc5)CC4)cnc32)cc1` [Compound 841, N-hydroxy-4-((5-(1-(pyridin-4-ylmethyl)piperidin-4-yl)-1H-pyrrolo[2,3-b]pyridin-1-yl)methyl)benzamide], the IC50 on HDAC6 human recombinant turned out to be 6.9 nM; on HDAC1 it was 540 nM.
Take `CC1CN(c2cnc3c(ccn3Cc3ccc(C(=O)NO)cc3)c2)CC(C)O1` (centres unmarked) [Compound 807, 4-((5-(2,6-dimethylmorpholino)-1H-pyrrolo[2,3-b]pyridin-1-yl)methyl)-N-hydroxybenzamide]: the IC50 at HDAC6 human recombinant worked out at 10.4 nM; against HDAC1 it was 390 nM.
For `CC(C)(C)OC(=O)NC1CCN(c2cnc3c(ccn3Cc3ccc(C(=O)NO)cc3)c2)CC1` [Compound 809, tert-butyl (1-(1-(4-(hydroxycarbamoyl)benzyl)-1H-pyrrolo[2,3-b]pyridin-5-yl)piperidin-4-yl)carbamate], the IC50 at HDAC6 human recombinant came to 30 nM; on HDAC1, 3720 nM.
With `COc1ccc(CN2CCC(c3cnc4c(ccn4Cc4ccc(C(=O)NO)cc4)c3)CC2)cc1` [Compound 830, N-hydroxy-4-((5-(1-(4-methoxybenzyl)piperidin-4-yl)-1H-pyrrolo[2,3-b]pyridin-1-yl)methyl)benzamide], the figures for the IC50 on HDAC6 human recombinant and on HDAC1 were 13 nM and 1920 nM, respectively.
For `O=C(NO)c1ccc(Cn2ccc3cc(C4CCN(Cc5cccc(F)c5)CC4)cnc32)cc1` [Compound 781, 4-((5-(1-(3-fluorobenzyl)piperidin-4-yl)-1H-pyrrolo[2,3-b]pyridin-1-yl)methyl)-N-hydroxybenzamide], in that order: 18 nM and 2440 nM.
The like results for `CC1CCN(c2cnc3c(ccn3Cc3ccc(C(=O)NO)cc3)c2)CC1` [Compound 805, N-hydroxy-4-((5-(4-methylpiperidin-1-yl)-1H-pyrrolo[2,3-b]pyridin-1-yl)methyl)benzamide] were, in that order, 38 nM and 1610 nM.
For `O=C(NO)c1ccc(Cn2ccc3cc(C4CCN(CC5(C(F)(F)F)CCC5)CC4)cnc32)cc1` [Compound 724, N-hydroxy-4-((5-(1-((1-(trifluoromethyl)cyclobutyl)methyl)piperidin-4-yl)-1H-pyrrolo[2,3-b]pyridin-1-yl)methyl)benzamide], in that order: 147 nM and 9820 nM.
`CC(C)(C)CCN1CCN(c2cnc3c(ccn3Cc3ccc(C(=O)NO)cc3)c2)CC1` [Compound 862, 4-((5-(4-(3,3-dimethylbutyl)piperazin-1-yl)-1H-pyrrolo[2,3-b]pyridin-1-yl)methyl)-N-hydroxybenzamide]: the results for the IC50 at HDAC6 human recombinant and against HDAC1 were 12.1 nM and 1430 nM, respectively.
For `O=C(NO)c1ccc(Cn2ccc3c(-c4ccc(F)cc4F)ccnc32)cc1` [Compound 658, 4-((4-(2,4-difluorophenyl)-1H-pyrrolo[2,3-b]pyridin-1-yl)methyl)-N-hydroxybenzamide], the IC50 was determined as 21 nM on HDAC6 human recombinant and 1950 nM on HDAC1.
The like results for `C[C@@H]1CN(c2ccnc3c2ccn3Cc2ccc(C(=O)NO)cc2)C[C@H](C)N1Cc1ccccc1` [Compound 990, 4-((4-((3S,5R)-4-benzyl-3,5-dimethylpiperazin-1-yl)-1H-pyrrolo[2,3-b]pyridin-1-yl)methyl)-N-hydroxybenzamide] were, in that order, 4.6 nM and 1360 nM.
Regarding `O=C(NO)c1ccc(Cn2ccc3c(-c4cncnc4)ccnc32)cc1` [Compound 659, N-hydroxy-4-((4-(pyrimidin-5-yl)-1H-pyrrolo[2,3-b]pyridin-1-yl)methyl)benzamide], the results for the IC50 at HDAC6 human recombinant and at HDAC1 were 4 nM and 900 nM, respectively.
For the compound `C[C@@H]1CN(c2cnc3c(ccn3Cc3ccc(C(=O)NO)cc3)c2)C[C@H](C)N1Cc1cccc(F)c1` [Compound 857, 4-((5-((3S,5R)-4-(3-fluorobenzyl)-3,5-dimethylpiperazin-1-yl)-1H-pyrrolo[2,3-b]pyridin-1-yl)methyl)-N-hydroxybenzamide], the IC50 on HDAC6 human recombinant came out at 24.8 nM; on HDAC1, 2140 nM.
For `O=C(NO)c1ccc(Cn2ccc3cc(C4=CCCCC4)cnc32)cc1` [Compound 648, 4-((5-(cyclohex-1-en-1-yl)-1H-pyrrolo[2,3-b]pyridin-1-yl)methyl)-N-hydroxybenzamide], in that order: 18 nM and 3550 nM.
